US7547690B2, “Compounds for the treatment of Hepatitis C” (Bristol-Myers Squibb Company, priority 2007, dated 2009)
pEC50, pIC50: −log10 of the molar value. Where two headings read alike, the source gives them in different places.

Key:
HCV NS5B = molecular target: T1, HCV NS5B (Hepatitis C virus genotype 1b, UniProt Q9WMX2); experiment: HCV NS5B RdRp enzyme assay (standard / modified); assay type: biochemical; details: standard or modified assay not specified
T1 construct: The protein was expressed with an 18 amino acid C-terminal truncation to enhance the solubility; made in house; host or cells: E. coli BL21(DE3)
T1 sequence (Q9WMX2 2420-2992): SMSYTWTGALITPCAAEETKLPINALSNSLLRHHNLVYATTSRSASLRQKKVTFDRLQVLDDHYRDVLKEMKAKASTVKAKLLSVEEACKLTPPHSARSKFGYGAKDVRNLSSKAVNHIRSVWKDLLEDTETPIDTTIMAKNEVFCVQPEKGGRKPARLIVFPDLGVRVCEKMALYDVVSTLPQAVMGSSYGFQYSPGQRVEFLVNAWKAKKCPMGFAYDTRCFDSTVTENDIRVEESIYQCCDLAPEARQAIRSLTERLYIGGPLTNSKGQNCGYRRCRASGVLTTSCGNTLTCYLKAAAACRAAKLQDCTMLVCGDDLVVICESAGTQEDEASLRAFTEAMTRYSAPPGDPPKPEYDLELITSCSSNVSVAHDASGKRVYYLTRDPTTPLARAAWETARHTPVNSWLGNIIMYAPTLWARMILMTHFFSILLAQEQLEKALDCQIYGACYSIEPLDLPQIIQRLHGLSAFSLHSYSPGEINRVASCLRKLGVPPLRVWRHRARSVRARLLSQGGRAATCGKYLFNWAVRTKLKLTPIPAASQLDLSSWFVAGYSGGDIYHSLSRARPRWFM
Method in brief: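 Genotype 1b NS5B, 18-aa C-terminal truncation, E. coli-expressed; polyA template with biotin-oligo-dT12 primer, 3H-UTP (0.29 μM UTP), pH 7.5 Hepes, 2% DMSO, 30 °C, SPA read. Standard: 28 nM enzyme, 6 nM template, 180 nM primer, 60 min. Modified: 1.75 nM enzyme, 0.36 nM template, 20 nM bead-precaptured primer, 4 h; IC50 from seven concentrations, four-parameter fit.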

HCV replicon cells = experiment: HCV replicon FRET / luciferase assay; assay type: cell-based
Method in brief: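 HCV replicon cells (with or without Renilla luciferase reporter) incubated with titrated compounds at 37° C; cytotoxicity read by Alamar blue. Replicon activity then read by NS3 cleavage of EDANS/DABCYL FRET peptide (20 μM final, 340/490 nm kinetic) or by luciferase; background from highest control-inhibitor wells subtracted; EC50 = concentration giving 50% signal reduction.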

[1] = HCV RdRp genotype 1b, read-out: IC50
[2] = Hepatitis C virus, 50% reduction in FRET or luciferase activity in HCV replicon cells, read-out: EC50

Compound | pIC50 (HCV NS5B; [1]) | pEC50 (HCV replicon cells; [2]) | other results
COc1ccc2c(c1)C1CC1(C(=O)N1CC3CN(Cc4ccccc4)CC(C1)N3Cc1ccccc1)Cn1c-2c(C2CCCCC2)c2ccc(C(=O)NS(=O)(=O)N(C)C)cc21 (stereo not shown) | 6.30 to 8.62 | 5.30 to 6.30 | –
COc1ccc2c(c1)C1CC1(C(=O)N1[C@@H]3C[C@H]1CN(C(C)=O)C3)Cn1c-2c(C2CCCCC2)c2ccc(C(=O)NS(=O)(=O)N(C)C)cc21 (stereo partly shown) | 6.30 to 8.62 | 6.30 to 8.62 | –
COc1ccc2c(c1)C1CC1(C(=O)N1C[C@@H]3C[C@H]1CN3C)Cn1c-2c(C2CCCCC2)c2ccc(C(=O)NS(=O)(=O)C3CC3)cc21 (stereo partly shown) [drawing 53] | 6.30 to 8.62 | – | pEC50 (HCV replicon cells; 50% reduction in FRET or luciferase activity in HCV replicon cells, read-out: EC50): 6.30 to 8.62
COc1ccc2c(c1)C1CC1(C(=O)N1[C@@H]3C[C@H]1CN(C)C3)Cn1c-2c(C2CCCCC2)c2ccc(C(=O)NS(=O)(=O)C3CC3)cc21 (stereo partly shown) | 6.30 to 8.62 | 6.30 to 8.62 | –
COc1ccc2c(c1)C1CC1(C(=O)N1C3CC1CN(C)C3)Cn1c-2c(C2CCCCC2)c2ccc(C(=O)NS(=O)(=O)CCCF)cc21 (stereo not shown) | 6.30 to 8.62 | 6.30 to 8.62 | –
COc1ccc2c(c1)C1CC1(C(=O)N1C3CCCC1CN(C)C3)Cn1c-2c(C2CCCCC2)c2ccc(C(=O)NS(C)(=O)=O)cc21 (stereo not shown) | 6.30 to 8.62 | 6.30 to 8.62 | –
COc1ccc2c(c1)C1CC1(S(=O)(=O)N1C3CC1CN(C)C3)Cn1c-2c(C2CCCCC2)c2ccc(C(=O)NS(=O)(=O)C3CC3)cc21 (stereo not shown) | 6.30 to 8.62 | 6.30 to 8.62 | –
COc1ccc2c(c1)C1CC1(C(=O)N1C3CC1CN(Cc1ccccc1)C3)Cn1c-2c(C2CCCCC2)c2ccc(C(=O)NS(=O)(=O)C3CCCC3)cc21 (stereo not shown) | 6.30 to 8.62 | 6.30 to 8.62 | –
COc1ccc2c(c1)C1CC1(C(=O)N1C3CN(C)CC1CN(C(C)C)C3)Cn1c-2c(C2CCCCC2)c2ccc(C(=O)NS(=O)(=O)N(C)C)cc21 (stereo not shown) | 6.30 to 8.62 | 6.30 to 8.62 | –
COc1ccc2c(c1)C1CC1(C(=O)N1[C@@H]3C[C@H]1CN(C)C3)Cn1c-2c(C2CCCCC2)c2ccc(C(=O)NS(C)(=O)=O)cc21 (stereo partly shown) | 6.30 to 8.62 | 6.30 to 8.62 | –
CCN1C[C@H]2C[C@@H]1CN2C(=O)C12CC1c1cc(OC)ccc1-c1c(C3CCCCC3)c3ccc(C(=O)NS(=O)(=O)N(C)C)cc3n1C2 (stereo partly shown) | 6.30 to 8.62 | 6.30 to 8.62 | –
COc1ccc2c(c1)C1CC1(C(=O)N1C3COCC1CN(C(C)C)C3)Cn1c-2c(C2CCCCC2)c2ccc(C(=O)NS(=O)(=O)N(C)C)cc21 (stereo not shown) | 6.30 to 8.62 | 6.30 to 8.62 | –
COc1ccc2c(c1)C1CC1(C(=O)N1C3CC1CN(Cc1ccccc1)C3)Cn1c-2c(C2CCCCC2)c2ccc(C(=O)NS(=O)(=O)C3CCC3)cc21 (stereo not shown) | 6.30 to 8.62 | 5.30 to 6.30 | –
CCCS(=O)(=O)NC(=O)c1ccc2c(C3CCCCC3)c3n(c2c1)CC1(C(=O)N2C4CC2CN(C)C4)CC1c1cc(OC)ccc1-3 (stereo not shown) | 6.30 to 8.62 | 6.30 to 8.62 | –
COc1ccc2c(c1)C1CC1(C(=O)N1C3CC1CN(C)C3)Cn1c-2c(C2CCCCC2)c2ccc(C(=O)NS(=O)(=O)C(C)C)cc21 (stereo not shown) | 6.30 to 8.62 | 6.30 to 8.62 | –
COc1ccc2c(c1)C1CC1(C(=O)N1C3CC1CN(C)C3)Cn1c-2c(C2CCCCC2)c2ccc(C(=O)NS(=O)(=O)C3CCOCC3)cc21 (stereo not shown) | 6.30 to 8.62 | 6.30 to 8.62 | –
COc1ccc2c(c1)C1CC1(C(=O)N1C[C@H]3C[C@@H]1CN3CC(C)C)Cn1c-2c(C2CCCCC2)c2ccc(C(=O)NS(=O)(=O)N(C)C)cc21 (stereo partly shown) | 6.30 to 8.62 | 6.30 to 8.62 | –
CCC(C)S(=O)(=O)NC(=O)c1ccc2c(C3CCCCC3)c3n(c2c1)CC1(C(=O)N2C4CN(C)CC2CN(Cc2ccccc2)C4)CC1c1cc(OC)ccc1-3 (stereo not shown) | 6.30 to 8.62 | 6.30 to 8.62 | –
COc1ccc2c(c1)C1CC1(C(=O)N1[C@@H]3CNC[C@H]1C3)Cn1c-2c(C2CCCCC2)c2ccc(C(=O)NS(=O)(=O)N(C)C)cc21 (stereo partly shown) | 6.30 to 8.62 | 6.30 to 8.62 | –

Compound | pIC50 (HCV NS5B; [1]) | pEC50 (HCV replicon cells; [2]) | other results
COc1ccc2c(c1)[C@@H]1C[C@]1(C(=O)N1CC3CC(C1)N3C)Cn1c-2c(C2CCCCC2)c2ccc(C(=O)NS(=O)(=O)N(C)C)cc21 | 6.30 to 8.62 | 6.30 to 8.62 | –
CCN1C[C@H]2C[C@@H]1CN2C(=O)C12CC1c1cc(OC)ccc1-c1c(C3CCCCC3)c3ccc(C(=O)NS(=O)(=O)C4CC4)cc3n1C2 (stereo partly shown) [drawing 43] | > 7.70 | 6.30 to 8.62 | –
COc1ccc2c(c1)[C@@H]1C[C@]1(C(=O)N1C3CCC1C1CCC3N1C)Cn1c-2c(C2CCCCC2)c2ccc(C(=O)NS(=O)(=O)N(C)C)cc21 [drawing 161] | – | – | pIC50 (HCV NS5B; HCV RdRp genotype 1b): 6.30 to 8.62; pEC50 (HCV replicon cells; 50% reduction in FRET or luciferase activity in HCV replicon cells): 6.30 to 8.62
COc1ccc2c(c1)C1CC1(C(=O)N1CC3CCC1CN3)Cn1c-2c(C2CCCCC2)c2ccc(C(=O)NS(=O)(=O)C3CCC3)cc21 (stereo not shown) | 6.30 to 8.62 | 6.30 to 8.62 | –
COc1ccc2c(c1)C=C(C(=O)N1C3CCCC1CN(C)C3)Cn1c-2c(C2CCCCC2)c2ccc(C(=O)NS(=O)(=O)N(C)C)cc21 | 6.30 to 8.62 | 6.30 to 8.62 | –
COc1ccc2c(c1)C1CC1(C(=O)N1C[C@H]3C[C@@H]1CN3CC(C)C)Cn1c-2c(C2CCCCC2)c2ccc(C(=O)NS(N)(=O)=O)cc21 (stereo partly shown) | 6.30 to 8.62 | 6.30 to 8.62 | –
COc1ccc2c(c1)[C@@H]1C[C@]1(C(=O)N1CC3CCC1CN3C)Cn1c-2c(C2CCCCC2)c2ccc(C(=O)NS(=O)(=O)N(C)C)cc21 (stereo partly shown) | 6.30 to 8.62 | 6.30 to 8.62 | –
COc1ccc2c(c1)[C@@H]1C[C@]1(C(=O)N1C3CCC1C1CCC3N1C)Cn1c-2c(C2CCCCC2)c2ccc(C(=O)NS(=O)(=O)N(C)C)cc21 [drawing 160] | – | – | pIC50 (HCV NS5B; IC50, HCV RdRp genotype 1b): 6.30 to 8.62; pEC50 (HCV replicon cells; Hepatitis C virus): 6.30 to 8.62
COc1ccc2c(c1)C1CC1(C(=O)N1[C@@H]3C[C@H]1CN(C)C3)Cn1c-2c(C2CCCCC2)c2ccc(C(=O)NS(=O)(=O)N(C)C)cc21 (stereo partly shown) | 6.30 to 8.62 | 6.30 to 8.62 | –
COc1ccc2c(c1)C1CC1(C(=O)N1CC3(C)CN(C)CC(C)(C1)C3)Cn1c-2c(C2CCCCC2)c2ccc(C(=O)NS(C)(=O)=O)cc21 (stereo not shown) | 6.30 to 8.62 | 6.30 to 8.62 | –
COc1ccc2c(c1)C1CC1(C(=O)N1C3CC1CN(C)C3)Cn1c-2c(C2CCCCC2)c2ccc(C(=O)NS(=O)(=O)C3CCCC3)cc21 (stereo not shown) | 6.30 to 8.62 | 6.30 to 8.62 | –
COc1ccc2c(c1)C1CC1(C(=O)N1C3CNCC1C3)Cn1c-2c(C2CCCCC2)c2ccc(C(=O)NS(=O)(=O)C3CC3)cc21 (stereo not shown) | 6.30 to 8.62 | 6.30 to 8.62 | –
COc1ccc2c(c1)[C@@H]1C[C@]1(C(=O)N1C3CC1CN(C)C3)Cn1c-2c(C2CCCCC2)c2ccc(C(=O)NS(=O)(=O)C(C)C)cc21 | 6.30 to 8.62 | 6.30 to 8.62 | –
COc1ccc2c(c1)C1CC1(C(=O)N1CC3CN(C)CC(C1)N3C(C)=O)Cn1c-2c(C2CCCCC2)c2ccc(C(=O)NS(=O)(=O)N(C)C)cc21 (stereo not shown) | 6.30 to 8.62 | 6.30 to 8.62 | –
COc1ccc2c(c1)C1CC1(C(=O)N1C[C@H]3C[C@@H]1CN3C(=O)OC(C)(C)C)Cn1c-2c(C2CCCCC2)c2ccc(C(=O)NS(=O)(=O)C(C)C)cc21 (stereo partly shown) | 6.30 to 8.62 | 6.30 to 8.62 | –
COc1ccc2c(c1)C1CC1(C(=O)N1CC3CCC1CN3)Cn1c-2c(C2CCCCC2)c2ccc(C(=O)NS(=O)(=O)CC(F)(F)F)cc21 (stereo not shown) | 6.30 to 8.62 | < 6.00 | –
CCC(C)S(=O)(=O)NC(=O)c1ccc2c(C3CCCCC3)c3n(c2c1)CC1(C(=O)N2CC4CCC2CN4)CC1c1cc(OC)ccc1-3 (stereo not shown) | 6.30 to 8.62 | 5.30 to 6.30 | –
COc1ccc2c(c1)C1CC1(C(=O)N1C3CN(C)CC1CN(Cc1ccccc1)C3)Cn1c-2c(C2CCCCC2)c2ccc(C(=O)NS(=O)(=O)N(C)C)cc21 (stereo not shown) | 6.30 to 8.62 | 6.30 to 8.62 | –
COc1ccc2c(c1)C1CC1(C(=O)N1CCN3CCC1CC3)Cn1c-2c(C2CCCCC2)c2ccc(C(=O)NS(=O)(=O)N(C)C)cc21 (stereo not shown) | 6.30 to 8.62 | 6.30 to 8.62 | –
